Where “and” joins values, the source holds several entries; their conditions need not be identical. Identical values can stand only once.
Settings: Hot wire method

CCF [fluoroethane]
Settings	thermal conductivity [W/m/K]
327.04 K, 1095.3 kPa, Gas	0.01963
327.1 K, 807.3 kPa, Gas	0.01901
327.1 K, 968 kPa, Gas	0.01947
327.18 K, 798.3 kPa, Gas	0.01958
327.49 K, 616.5 kPa, Gas	0.01891
327.67 K, 420.8 kPa, Gas	0.01907
327.88 K, 999.2 kPa, Gas	0.01944
328.12 K, 807.3 kPa, Gas	0.01964
328.26 K, 616.5 kPa, Gas	0.0193
328.79 K, 420.8 kPa, Gas	0.01938
332.17 K, 969.9 kPa, Gas	0.02009
332.31 K, 756.8 kPa, Gas	0.01954
332.66 K, 396.8 kPa, Gas	0.01951
332.66 K, 969.9 kPa, Gas	0.02013
333.3 K, 756.8 kPa, Gas	0.01971
333.74 K, 396.8 kPa, Gas	0.01972
336.09 K, 1491 kPa, Gas	0.02082
336.27 K, 1198.3 kPa, Gas	0.02033
336.49 K, 1758.2 kPa, Gas	0.02175
336.67 K, 1491 kPa, Gas	0.02077
336.83 K, 865.8 kPa, Gas	0.01986
336.9 K, 1198.3 kPa, Gas	0.02068
336.91 K, 706.3 kPa, Gas	0.01983
337.06 K, 1758.2 kPa, Gas	0.02164
337.27 K, 1491 kPa, Gas	0.0208
337.33 K, 480.3 kPa, Gas	0.02
337.56 K, 1198.3 kPa, Gas	0.02055
337.61 K, 206.2 kPa, Gas	0.02003
337.81 K, 865.8 kPa, Gas	0.01999
337.89 K, 706.3 kPa, Gas	0.01991
338.08 K, 480.3 kPa, Gas	0.01991
338.76 K, 206.2 kPa, Gas	0.02026
345.5 K, 2260 kPa, Gas	0.0234
345.62 K, 2008 kPa, Gas	0.02287
345.73 K, 1253.4 kPa, Gas	0.02123
345.76 K, 1802.5 kPa, Gas	0.02255
345.91 K, 1001.2 kPa, Gas	0.0213
346.04 K, 748.6 kPa, Gas	0.02153
346.17 K, 2008 kPa, Gas	0.02305
346.18 K, 454.4 kPa, Gas	0.02091
346.2 K, 1802.5 kPa, Gas	0.02205
346.23 K, 2260 kPa, Gas	0.02334
346.43 K, 1560.1 kPa, Gas	0.02199
346.52 K, 1253.4 kPa, Gas	0.02134
346.59 K, 250.1 kPa, Gas	0.02108
346.68 K, 1001.2 kPa, Gas	0.02108
346.83 K, 454.4 kPa, Gas	0.02085
346.87 K, 2260 kPa, Gas	0.02339
346.91 K, 748.6 kPa, Gas	0.02154
347.13 K, 2008 kPa, Gas	0.02317
347.22 K, 1802.5 kPa, Gas	0.02234
347.3 K, 250.1 kPa, Gas	0.02135
347.67 K, 1560.1 kPa, Gas	0.02199
347.86 K, 1253.4 kPa, Gas	0.02137
348.08 K, 1001.2 kPa, Gas	0.02122
348.34 K, 748.6 kPa, Gas	0.02136
348.4 K, 250.1 kPa, Gas	0.0215
348.67 K, 454.4 kPa, Gas	0.02127
355.01 K, 2934.5 kPa, Gas	0.02654
355.38 K, 2586.5 kPa, Gas	0.02498
355.41 K, 2277.9 kPa, Gas	0.02422
355.59 K, 2007.1 kPa, Gas	0.02432
355.72 K, 1531.1 kPa, Gas	0.02295
355.79 K, 2586.5 kPa, Gas	0.02513
355.91 K, 2277.9 kPa, Gas	0.02436
355.95 K, 2934.5 kPa, Gas	0.0265
355.99 K, 1034.8 kPa, Gas	0.02302
356.06 K, 2007.1 kPa, Gas	0.02406
356.17 K, 611.2 kPa, Gas	0.02275
356.26 K, 2586.5 kPa, Gas	0.02498
356.27 K, 1531.1 kPa, Gas	0.02331
356.32 K, 266.7 kPa, Gas	0.02267
356.52 K, 2277.9 kPa, Gas	0.02412
356.55 K, 1034.8 kPa, Gas	0.0229
356.73 K, 2007.1 kPa, Gas	0.02363
356.82 K, 611.2 kPa, Gas	0.02305
357.02 K, 266.7 kPa, Gas	0.02276
357.06 K, 1531.1 kPa, Gas	0.02299
357.39 K, 1034.8 kPa, Gas	0.02287
357.69 K, 611.2 kPa, Gas	0.02264
357.98 K, 266.7 kPa, Gas	0.02298
364.77 K, 3438 kPa, Gas	0.02941
364.87 K, 3960.3 kPa, Gas	0.03259
365.05 K, 2942.4 kPa, Gas	0.02781
365.11 K, 3438 kPa, Gas	0.02942
365.43 K, 2942.4 kPa, Gas	0.02721
365.62 K, 2506.8 kPa, Gas	0.0257
365.62 K, 3718.5 kPa, Gas	0.03133
365.65 K, 3438 kPa, Gas	0.02965
365.98 K, 2942.4 kPa, Gas	0.027
365.99 K, 2001.8 kPa, Gas	0.02478
366.21 K, 2506.8 kPa, Gas	0.02572
366.21 K, 3718.5 kPa, Gas	0.03142
366.29 K, 533.7 kPa, Gas	0.02342
366.42 K, 1515.5 kPa, Gas	0.02467
366.63 K, 1029 kPa, Gas	0.0243
366.67 K, 2001.8 kPa, Gas	0.02473
366.76 K, 2506.8 kPa, Gas	0.02558
367.1 K, 1515.5 kPa, Gas	0.02393
367.32 K, 2001.8 kPa, Gas	0.02511
367.38 K, 533.7 kPa, Gas	0.0242
367.49 K, 1029 kPa, Gas	0.02463
368.3 K, 533.7 kPa, Gas	0.02352
368.41 K, 1515.5 kPa, Gas	0.02402
368.9 K, 1029 kPa, Gas	0.02415
373.83 K, 4470.3 kPa, Gas	0.03726
373.99 K, 4470.3 kPa, Gas	0.03714
374.47 K, 4470.3 kPa, Gas	0.03687
374.48 K, 2938.6 kPa, Gas	0.02793
374.62 K, 2478.9 kPa, Gas	0.02638
374.67 K, 3543.9 kPa, Gas	0.03045
374.7 K, 2119.8 kPa, Gas	0.02585
374.85 K, 1564.8 kPa, Gas	0.02515
375.05 K, 2938.6 kPa, Gas	0.02813
375.25 K, 2119.8 kPa, Gas	0.02574
375.37 K, 364.6 kPa, Gas	0.02485
375.68 K, 1564.8 kPa, Gas	0.0258
375.8 K, 2478.9 kPa, Gas	0.02745
375.94 K, 2119.8 kPa, Gas	0.02613
376.1 K, 887.8 kPa, Gas	0.02494
376.18 K, 1564.8 kPa, Gas	0.02555
376.41 K, 364.6 kPa, Gas	0.02448
376.83 K, 887.8 kPa, Gas	0.02525
377.08 K, 364.6 kPa, Gas	0.02454
377.36 K, 5247.3 kPa, Fluid (supercritical or subcritical phases)	0.07905
377.63 K, 5247.3 kPa, Fluid (supercritical or subcritical phases)	0.08228
377.73 K, 5247.3 kPa, Fluid (supercritical or subcritical phases)	0.08638
380.51 K, 5230.1 kPa, Fluid (supercritical or subcritical phases)	0.05046

Liquid
Settings	thermal conductivity
334.87 K	0.09073 W/m/K and 0.09116 W/m/K and 0.09121 W/m/K
335.25 K	0.09091 W/m/K and 0.09082 W/m/K
335.26 K	0.09123 W/m/K
335.66 K	0.09055 W/m/K and 0.09054 W/m/K
335.67 K	0.09089 W/m/K
344.8 K	0.08543 W/m/K
344.82 K	0.08529 W/m/K and 0.08532 W/m/K
345.2 K	0.08496 W/m/K
345.21 K	0.08506 W/m/K and 0.08519 W/m/K
345.68 K	0.08484 W/m/K
345.7 K	0.08488 W/m/K
345.72 K	0.08489 W/m/K
354.61 K	0.081 W/m/K
354.62 K	0.08121 W/m/K and 0.08127 W/m/K
354.87 K	0.08113 W/m/K
354.88 K	0.08093 W/m/K and 0.08129 W/m/K
354.89 K	0.08101 W/m/K
354.97 K	0.08115 W/m/K
354.99 K	0.08085 W/m/K
355 K	0.08097 W/m/K
355.29 K	0.0807 W/m/K and 0.08094 W/m/K
355.3 K	0.08092 W/m/K
355.37 K	0.08104 W/m/K
355.38 K	0.08142 W/m/K and 0.08125 W/m/K
355.7 K	0.08043 W/m/K and 0.08031 W/m/K
355.71 K	0.08044 W/m/K
364.69 K	0.07657 W/m/K
364.71 K	0.07768 W/m/K
364.75 K	0.07676 W/m/K
365.06 K	0.07678 W/m/K
365.08 K	0.07679 W/m/K and 0.07656 W/m/K
365.47 K	0.07603 W/m/K
365.52 K	0.07616 W/m/K
365.53 K	0.07615 W/m/K
374.47 K	0.07323 W/m/K
374.48 K	0.07368 W/m/K and 0.07356 W/m/K
374.81 K	0.07343 W/m/K and 0.07344 W/m/K
374.82 K	0.07343 W/m/K
375.2 K	0.07321 W/m/K
375.21 K	0.07381 W/m/K and 0.07357 W/m/K

Source: the NIST ThermoML archive (doi:10.1016/j.fluid.2014.04.038)
